Test results taken from article PMC10349806 (Nature Communications, 2023).
Where “and” joins values, the source holds several entries; their conditions need not be identical. Equal entries are not always repeated.

Legend:
[1] = tested on: PfCRT variant F319A; test: CQ uptake assay, oocytes expressing F319A; format: cell-based, Plasmodium falciparum
Experimental: (§1) Site-directed mutagenesis of PfCRT^Dd2 was performed as described using the megaprimer method with overlap extension[21],[54]. The primer pairs used are listed in Supplementary Table 6. Please note that a codon-optimized and oocyte-adapted version of PfCRT^Dd2 was used[22] (Supplementary Fig. 16). The resulting DNA fragment was cloned into the SP64T expression vector and verified by sequencing.
(§2) Oocytes were obtained as described previously. Briefly, adult (>2 years old) female X. laevis frogs (NASCO) were anesthetized in a cooled solution of ethyl 3-amino benzoate methanesulfonate (0.1%, w/v), followed by a surgical removal of parts of the ovary. The ovary lobes were carefully dissected and small pieces of oocytes were incubated in Ca^2+-free ND96 buffer (96 mM NaCl, 2 mM KCl, 1 mM MgCl2 buffered with 5 mM HEPES/NaOH, pH 7.5) supplemented with collagenase D (0.1%, w/v; Roche), BSA (0.5%, w/v), and 9 mm Na2HPO4 at 18 °C for 14-16 h while gentle shaking. After incubation, the oocytes were carefully washed several times with ND96 buffer (96 mM NaCl, 2 mM KCl, 1.8 mM CaCl2, 1 mM MgCl2 buffered with 5 mM HEPES/NaOH, pH 7.5) supplemented with 100 mg l^−1 gentamycin). Defolliculated and healthy-looking stage V-VI oocytes were manually selected for RNA microinjection. The RNA was generated as following: The codon-optimized sequences of PfCRT variants were cloned into the pSP64T expression vector. After vector linearization using the restriction endonucleases BamHI or SalI (New England Biolabs), transcription was performed using the in vitro SP6 mMessage mMachine Kit (Ambion)[34]. The obtained RNA was kept at −80 °C and diluted with nuclease-free water to a concentration of 0.6 μg μl^−1. Precision-bore glass capillary tubes (3.5-inch glass capillaries; Drummond Scientific Co.) were pulled on a vertical puller (P-87 Flaming/Brown micropipette puller, Sutter Instrument Co.), graduated, and placed on a microinjector (Nanoject II Auto-Nanoliter Injector, Drummond Scientific Co.). 50 nl of nuclease-free water alone (control oocytes) or 50 nl of 0.6 μg μl^−1 RNA were injected under stereomicroscopic control. Injected oocytes were incubated for 46–72 h at 18 °C with twice-daily buffer changes before usage in experiments.
Drug uptake assays were performed as described previously[21],[22],[24],[34]. […] The direction of radio-labeled drug transport is here from the mostly acidic extracellular solution (pH 4.5 or 6.0, as indicated) into the oocyte cytosol (pH ∼ 7.2), which corresponds to the efflux of drug from the acidic digestive vacuole (pH 5.2) into the parasite cytoplasm (pH 7.2). The topology of PfCRT in the oolemma is such that both the N- and C-terminus face the extracellular milieu[3],[22]. In the parasite, the N- and C-terminus face the lumen of the digestive vacuole. CQ uptake kinetics were performed by incubating oocytes in ND96 buffer adjusted to a pH of 4.5, 5.0, 5.5, or 6.0 and supplemented with 50 nM [^3H]CQ and one of 7 different CQ concentrations (10 µM, 50 µM, 100 µM, 200 µM, 300 µM, 400 µM, 500 µM CQ). The reaction was stopped at the 60 min time point, which is in the linear uptake range[22],[34] (Supplementary Fig. 17). […] The radioactivity of each sample was measured using a liquid scintillation analyzer Tri-Carb 4910 TR (PerkinElmer). Oocytes that were injected with water instead of RNA were analyzed in parallel, representing the uptake of a drug by diffusion and/or endogenous permeation pathways. […]

[2] = target: T1, PfCRT variant D137N (Plasmodium falciparum, UniProt Q9N623, A220S/D137N/I356T/K76T/M74I/N326S/N75E/Q271E/R371I); test: CQ uptake assay, oocytes expressing D137N; format: cell-based
T1 sequence (Q9N623 1-424 M74I/N75E/K76T/D137N/A220S/Q271E/N326S/I356T/R371I): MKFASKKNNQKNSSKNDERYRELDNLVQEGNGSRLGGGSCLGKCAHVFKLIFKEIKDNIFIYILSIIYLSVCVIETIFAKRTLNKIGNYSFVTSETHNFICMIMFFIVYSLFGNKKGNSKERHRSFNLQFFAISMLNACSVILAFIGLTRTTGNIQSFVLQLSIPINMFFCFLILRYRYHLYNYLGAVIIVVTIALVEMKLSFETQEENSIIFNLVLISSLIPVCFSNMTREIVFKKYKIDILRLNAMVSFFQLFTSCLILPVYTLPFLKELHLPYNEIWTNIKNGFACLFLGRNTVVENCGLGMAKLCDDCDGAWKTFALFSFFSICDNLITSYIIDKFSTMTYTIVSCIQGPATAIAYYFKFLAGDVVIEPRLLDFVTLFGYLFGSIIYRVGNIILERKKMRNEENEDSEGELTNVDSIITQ
Experimental: as §1, §2
Drug uptake assays were performed as described previously[21],[22],[24],[34]. […] The direction of radio-labeled drug transport is here from the mostly acidic extracellular solution (pH 4.5 or 6.0, as indicated) into the oocyte cytosol (pH ∼ 7.2), which corresponds to the efflux of drug from the acidic digestive vacuole (pH 5.2) into the parasite cytoplasm (pH 7.2). The topology of PfCRT in the oolemma is such that both the N- and C-terminus face the extracellular milieu[3],[22]. In the parasite, the N- and C-terminus face the lumen of the digestive vacuole. CQ uptake kinetics were performed by incubating oocytes in ND96 buffer adjusted to a pH of 4.5, 5.0, 5.5, or 6.0 and supplemented with 50 nM [^3H]CQ and one of 7 different CQ concentrations (10 µM, 50 µM, 100 µM, 200 µM, 300 µM, 400 µM, 500 µM CQ). The reaction was stopped at the 60 min time point, which is in the linear uptake range[22],[34] (Supplementary Fig. 17). For determination of the amount of drug uptake for each oocyte, the reaction medium was removed and the oocytes were washed three times with 2 ml of ice-cold ND96 buffer. Each oocyte was individually transferred to a scintillation vial containing 5% sodium dodecyl sulfate (200 μl) for lysis. The radioactivity of each sample was measured using a liquid scintillation analyzer Tri-Carb 4910 TR (PerkinElmer). Oocytes that were injected with water instead of RNA were analyzed in parallel, representing the uptake of a drug by diffusion and/or endogenous permeation pathways. The resulting value represents the “background“ level of drug accumulation in oocytes (in-depth discussion in[22]). […]

[3] = F319A, 50 µM CQ, 1 h, mean ± SEM
[4] = pH 4.5, single replicates, Fig 1d left
[5] = pH 6.0, single replicates, Fig 1d left
[6] = D137N, 50 µM CQ, 1 h, mean ± SEM

## CCN(CC)CCCC(C)Nc1ccnc2cc(Cl)ccc12 (centres unmarked) [CQ, chloroquine]
[1]; [3]
  Activity at pH 4.5: 0.90 ± 0.25 pmol h-1 oocyte-1
  Activity at pH 6.0: 3.64 ± 0.45 pmol h-1 oocyte-1
[1]; F319A, CQ transport at pH 4.5 / pH 6.0
  R-value: 0.26 ± 0.07
[1]; [4]
  F319A transport activity pH 4.5: 0.43 pmol oocyte-1 h-1 and 1.48 pmol oocyte-1 h-1 and 0.80 pmol oocyte-1 h-1
[1]; [5]
  F319A transport activity pH 6.0: 4.19 pmol oocyte-1 h-1 and 3.55 pmol oocyte-1 h-1 and 3.19 pmol oocyte-1 h-1
[2]; [6]
  Activity at pH 4.5: 0.57 ± 0.14 pmol h-1 oocyte-1
  Activity at pH 6.0: 0.95 ± 0.18 pmol h-1 oocyte-1
[2]; D137N, CQ transport at pH 4.5 / pH 6.0
  R-value: 0.59 ± 0.04
[2]; [4]
  D137N transport activity pH 4.5: 0.77 pmol oocyte-1 h-1 and 0.37 pmol oocyte-1 h-1 and 0.63 pmol oocyte-1 h-1
[2]; pH 4.5 vs pH 6.0, Fig 1d left
  D137N R-value: 0.64 and 0.53 and 0.59
[2]; [5]
  D137N transport activity pH 6.0: 1.20 pmol oocyte-1 h-1 and 0.70 pmol oocyte-1 h-1 and 1.07 pmol oocyte-1 h-1
